According to patent publication EP4759805A1, “NLRP3 INFLAMMASOME INHIBITOR AND USE THEREOF” (NEUROCRINE BIOSCIENCES, INC., priority 2023, dated 2025):

Target: T1, NLRP3 inflammasome (Homo sapiens, UniProt Q96P20)
T1 construct: endogenous in cells; host or cells: THP-1 cells (PMA-differentiated, LPS-primed, nigericin-stimulated)
Assay: Cell assay of inhibitory activity against NLRP3 inflammasome in THP-1 cells (LPS/nigericin stimulation, caspase-1 glo readout)
Format: cell-based
Settings: PMA-differentiated THP-1 cells; LPS 500 ng/ml 3 h, compound 1 h, nigericin 10 µg/ml 30 min; active caspase-1 in supernatant
Description: Experimental Example 1: Cell assay of inhibitory activity of the compounds of the present disclosure against NLRP3 inflammasome
Test compounds: the compounds of the present disclosure prepared in accordance with the methods described in the Examples
THP-1 was an immortalized human macrophage cell line.
Test instrument: Microplate reader (manufactured by PE)
• 1. THP-1 cells were cultured in 1640 complete medium (500 ml 1640+56 ml FBS+560 µl 1000× P/S+2 µl mercaptoethanol), and used within 3 to 20 passages. • 2. Coating of culture plates: 100 µl of polylysine solution was added into a 96-well cell culture plate and incubated at 37°C for 30min. The solution was discarded, and the plate was washed twice with PBS for later use. • 3. Induction of differentiation of THP-1: THP-1 cells were resuspended in an appropriate amount of complete medium containing 10 ng/ml PMA to achieve a cell density of 5×10^5 cells /ml in the suspension. The cell suspension was added into a 96-well plate with 100 µl of cell suspension per well, and the 96-well plate was cultured overnight for 16 hours in a 37°C CO2 cell incubator. • 4. Stimulation of THP-1: • a. Serum-free THP-1 culture medium containing LPS was added to achieve a final concentration of 500 ng/ml, and the resultant was cultured in a 37°C CO2 cell incubator for 3h; • b. The compounds to be tested were prepared into stock solutions at gradient concentrations with DMSO. The resulting solutions were added to the cells, evenly mixed, and finally diluted at 1:1000. The 96-well plate was cultured in a 37°C CO2 cell incubator for 1h. • c. Nigericin was added to each well to achieve a final concentration of 10 µg/ml, and the resultant was cultured in a 37°C CO2 cell incubator for 30 min. • d. The resulting culture medium in each well was transferred to a new culture plate, which was then centrifuged at 3000 rpm for 5min. Afterwards, the supernatant was transferred to a new 96-well plate. • e. The collected supernatant samples of the cell culture medium were determined by using a commercial caspase-1 glo kit, and the content of human active caspase-1 was determined according to the manufacturer's instructions.

T1 sequence (Q96P20 whole entry): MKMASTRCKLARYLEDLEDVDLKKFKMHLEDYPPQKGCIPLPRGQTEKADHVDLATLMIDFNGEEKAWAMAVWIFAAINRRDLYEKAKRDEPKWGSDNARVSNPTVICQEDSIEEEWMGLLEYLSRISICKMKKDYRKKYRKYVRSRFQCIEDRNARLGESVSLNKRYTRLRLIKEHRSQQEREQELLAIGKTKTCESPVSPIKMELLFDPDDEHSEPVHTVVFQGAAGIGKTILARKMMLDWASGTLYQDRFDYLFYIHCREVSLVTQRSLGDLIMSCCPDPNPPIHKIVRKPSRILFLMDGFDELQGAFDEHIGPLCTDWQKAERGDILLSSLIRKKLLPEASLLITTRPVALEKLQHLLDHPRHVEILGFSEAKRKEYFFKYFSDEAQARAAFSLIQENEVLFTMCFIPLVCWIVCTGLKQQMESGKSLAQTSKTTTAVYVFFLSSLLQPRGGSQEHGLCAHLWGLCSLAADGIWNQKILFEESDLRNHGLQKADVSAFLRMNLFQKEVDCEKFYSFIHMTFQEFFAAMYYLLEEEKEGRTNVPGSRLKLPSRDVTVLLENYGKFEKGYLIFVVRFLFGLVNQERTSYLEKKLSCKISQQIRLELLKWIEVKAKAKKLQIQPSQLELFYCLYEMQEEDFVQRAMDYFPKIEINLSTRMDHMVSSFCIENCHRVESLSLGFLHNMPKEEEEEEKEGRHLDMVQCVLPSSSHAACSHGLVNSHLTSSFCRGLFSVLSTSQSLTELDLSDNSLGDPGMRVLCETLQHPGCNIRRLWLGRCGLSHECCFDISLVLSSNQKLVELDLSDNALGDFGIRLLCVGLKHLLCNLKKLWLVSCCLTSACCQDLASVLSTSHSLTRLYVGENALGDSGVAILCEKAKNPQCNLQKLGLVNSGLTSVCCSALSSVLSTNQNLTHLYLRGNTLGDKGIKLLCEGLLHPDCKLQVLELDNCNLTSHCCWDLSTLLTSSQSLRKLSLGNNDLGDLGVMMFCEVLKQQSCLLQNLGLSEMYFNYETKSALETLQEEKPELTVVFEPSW

IC50: 5.6 nM
SMILES: CNCC(=O)Nc1cc(C2CC2)c(-c2ccc(Cl)cc2O)nn1 [Compound 67, N-(6-(4-chloro-2-hydroxyphenyl)-5-cyclopropylpyridazin-3-yl)-2-(methylamino)acetamide]
